Experimental data from patent US20240301156A1, “FOAMABLE RESIN COMPOSITION, FOAM BODY, METHOD FOR PRODUCING FOAM BODY, AND FOAMABLE CURING AGENT” (MITSUBISHI GAS CHEMICAL COMPANY, INC., priority 2021, published 2024).

Assays:
[1] = Maximum carbon dioxide (CO2) release temperature of amine compound (DSC); assay type: physicochemical; conditions: amine left in air at 23° C., 50% RH for 24 hours; DSC 23 to 250° C., 10° C./minute, nitrogen
Procedure: The amine compound (a1) with carbon dioxide absorbed is heated at a heating rate of 10° C./minute from 23° C. to 250° C., and the temperature at which the amount of heat absorbed due to desorption of carbon dioxide reaches the maximum is measured, and the temperature is defined as the maximum carbon dioxide release temperature. In this regard the amine compound (a1) with carbon dioxide absorbed may be prepared by leaving 5 mmol of the amine compound (a1) to stand in air at 23° C. and 50% RH for 24 hours.
A carbon dioxide detector and a Petri dish were placed in an openable desiccator (inner dimension: 370 mm×260 mm×272 mm). Subsequently the amine compound (5 mmol) was added to the Petri dish in the desiccator and the door was immediately closed to leave the amine compound to stand in the desiccator in an air environment at 23° C. and 50% RH for 24 hours. The initial concentration of carbon dioxide was adjusted to about 400 ppm.
(§1) Then the amine compound was removed from the desiccator to give an amine compound with carbon dioxide absorbed. The maximum carbon dioxide release temperature of the amine compound with carbon dioxide absorbed was measured by subjecting the amine compound to DSC as described below. First, differential scanning calorimetry of the amine compound was performed under conditions of a temperature range of 23 to 250° C., a heating rate of 10° C./minute and a nitrogen atmosphere using a differential thermogravimeter (product name DTG-60 made by Shimadzu Corporation). The temperature at which the amount of heat absorbed due to the desorption of carbon dioxide was the maximum was calculated from the DSC curve obtained, and the temperature was determined as the maximum carbon dioxide release temperature of the amine compound.

[2] = Maximum endothermic temperature of amine compound (DSC); assay type: physicochemical; conditions: DSC 23 to 350° C., 10° C./minute, nitrogen; evaporation of the amine compound
Procedure: The amine compound (a1) is heated at a heating rate of 10° C./minute from 23° C. to 350° C. and the temperature at which the amount of heat absorbed due to evaporation of the amine compound (a1) reaches the maximum is measured, and the temperature is defined as the maximum endothermic temperature of the amine compound (a1).
as §1, with “The” for “Then the amine compound was removed from the desiccator to give an amine compound with carbon dioxide absorbed. The”, “endothermic” for “carbon dioxide release”, “compound” for “compound with carbon dioxide absorbed”, “350°” for “250°”, “evaporation” for “desorption”, “the amine compound” for “carbon dioxide”

[3] = Amine value of amine compound (JIS K7237-1995 titration); assay type: physicochemical; conditions: 0.1 N perchloric acid-acetic acid titration
Procedure: The amine value was measured by the following measurement method according to JIS K7237-1995. • (1) 0.1 g of the amine compound was dissolved in 20 mL of acetic acid. • (2) The amine value was calculated by titrating the solution prepared in (1) above with 0.1 N perchloric acid-acetic acid solution using an automatic potentiometric titrator (AT-610 made by Kyoto Electronics Manufacturing Co., Ltd.) (Acid Dissociation Constant (pKa) of Amine Compound)

[4] = Absorption of carbon dioxide into amine compound: percentage increase of mass; assay type: physicochemical; conditions: amine left to stand in air at 23° C. and 50% RH for a week
Procedure: An amine compound, MXDA (40 mmol), was put in a container and left to stand in an air environment at 23° C. and 50% RH for a week. By doing so MXDA and carbon dioxide in the air were reacted to give a carbonate of MXDA. At that stage, to suppress uneven reaction, the container in which the amine compound was placed was shaken as necessary so as not to leave unreacted MXDA.
Next, increase of the mass of MXDA was measured and the percentage increase of the mass of the amine compound was calculated by the following equation.
Percentage increase of mass of amine compound [% by mass]=100×amount of increase of mass of amine compound (g)/(initial mass of amine compound (g)+amount of increase of mass of amine compound (g))

[5] = Acid dissociation constant (pKa) of amine compound, acid-base titration; conditions: purified water
Procedure: (§2) The acid dissociation constant of the amine compound (a1) is measured by the following measurement method based on acid-base titration. • (1) 0.2 g of the amine compound (a1) is dissolved in 30 mL of purified water. • (2) The acid dissociation constant (pKa) is calculated by titrating the solution prepared in (1) above with 0.1 N perchloric acid-acetic acid solution using an automatic potentiometric titrator (e.g., AT-610 made by Kyoto Electronics Manufacturing Co., Ltd.).
(§3) The acid dissociation constant of the amine compound was measured by the following measurement method. • (1) 0.2 g of the amine compound was dissolved in 30 mL of purified water. • (2) The acid dissociation constant (pKa) was calculated by titrating the solution prepared in (1) above with 0.1 N perchloric acid-acetic acid solution using an automatic potentiometric titrator (AT-610 made by Kyoto Electronics Manufacturing Co., Ltd.).
(§4) The temperature in the measurement was 25±2° C.

Procedure for physchem: as §2, §3, §4

## NCC1CCCC(CN)C1 (centres unmarked) [1,3-BAC, 1,3-bis(aminomethyl)cyclohexane]
[1]
  Maximum CO2 release temperature: 125.7 °C
[2]
  Maximum endothermic temperature: 160.9 °C
[3]
  Amine value: 789 mg KOH/g
[4]
  Percentage increase of mass: 25.9 % by mass

## NCCN1CCNCC1 [AEP, N-(2-aminoethyl)piperazine]
[1]
  Maximum CO2 release temperature: 81.9 °C
[2]
  Maximum endothermic temperature: 140.2 °C
[3]
  Amine value: 1303 mg KOH/g
[4]
  Percentage increase of mass: 43.7 % by mass
[5]
  pKa: 8.9

## CC1(C)CC(N)CC(C)(CN)C1 (centres unmarked) [IPDA, isophoronediamine]
[1]
  Maximum CO2 release temperature: 114.4 °C
[2]
  Maximum endothermic temperature: 168.8 °C
[3]
  Amine value: 659 mg KOH/g
[4]
  Percentage increase of mass: 23.5 % by mass
[5]
  pKa: 10.4

## NCc1cccc(CN)c1 [MXDA, metaxylylenediamine]
[1]
  Maximum CO2 release temperature: 135.5 °C
[2]
  Maximum endothermic temperature: 183.5 °C
[3]
  Amine value: 824 mg KOH/g
[4]
  Percentage increase of mass: 24.1 % by mass

## NC1CCC(CC2CCC(N)CC2)CC1 (centres unmarked) [PACM, 4,4′-methylenebis(cyclohexylamine)]
[1]
  Maximum CO2 release temperature: 53.0 °C
[2]
  Maximum endothermic temperature: 218.5 °C
[3]
  Amine value: 533 mg KOH/g
[4]
  Percentage increase of mass: 12.2 % by mass
physchem
  pKa: 10.3
